These results are taken from article PMC11452043, “In vitro 5-LOX inhibitory and antioxidant potential of isoxazole derivatives” (PLOS ONE, 2024).

A short description of assay [1]: DPPH free radical scavenging (antioxidant) assay. Conditions: for DPPH percent inhibition: mean ± SEM, n = 3. As to the method: The previously outlined methodology will be employed to evaluate the compounds’ antioxidant ability, as determined by the processes of the 1,1-diphenyl, 2-picrylhydrazyl (DPPH) free radical. The experimental specimens will be subjected to dilution using different quantities, spanning from 62.5 to 1000 μg/ml, and afterwards introduced into a methanolic solution of DPPH at a concentration of 0.004%. At 517 nm, the absorbance will be determined by a UV spectrophotometer following a 30-minute duration. The scavenging capability of ascorbic acid will be quantified by employing the equation: DPPH=[(A0−A1)/A0]100 Whereas: […]
Every test was carried out three times, and the median inhibitory dosages (IC50) were determined. The drawing of inhibition graphs was performed by GraphPad Prism software-GraphPAD, San Diego, California, USA.
The IC50 values were determined from dosage response curve using Microsoft Excel program.
A general note: DPPH is a stable violet radical that fades when it is reduced.

For assay [2], the system named is paw edema. Conditions: dose dependent manner; cited from earlier work.
In assay [3] the test system is 5-LOX. The note with it: cited from earlier work.
Assay [4] relates to COX. Conditions: cited from earlier work.
In assay [5] the test system is tumor growth. Conditions: in vivo and in vitro; cited from earlier work.
In assay [6] the target is T1, 5-lipoxygenase (5-LOX) enzyme (Homo sapiens, UniProt P09917).
T1 sequence (P09917 1-674): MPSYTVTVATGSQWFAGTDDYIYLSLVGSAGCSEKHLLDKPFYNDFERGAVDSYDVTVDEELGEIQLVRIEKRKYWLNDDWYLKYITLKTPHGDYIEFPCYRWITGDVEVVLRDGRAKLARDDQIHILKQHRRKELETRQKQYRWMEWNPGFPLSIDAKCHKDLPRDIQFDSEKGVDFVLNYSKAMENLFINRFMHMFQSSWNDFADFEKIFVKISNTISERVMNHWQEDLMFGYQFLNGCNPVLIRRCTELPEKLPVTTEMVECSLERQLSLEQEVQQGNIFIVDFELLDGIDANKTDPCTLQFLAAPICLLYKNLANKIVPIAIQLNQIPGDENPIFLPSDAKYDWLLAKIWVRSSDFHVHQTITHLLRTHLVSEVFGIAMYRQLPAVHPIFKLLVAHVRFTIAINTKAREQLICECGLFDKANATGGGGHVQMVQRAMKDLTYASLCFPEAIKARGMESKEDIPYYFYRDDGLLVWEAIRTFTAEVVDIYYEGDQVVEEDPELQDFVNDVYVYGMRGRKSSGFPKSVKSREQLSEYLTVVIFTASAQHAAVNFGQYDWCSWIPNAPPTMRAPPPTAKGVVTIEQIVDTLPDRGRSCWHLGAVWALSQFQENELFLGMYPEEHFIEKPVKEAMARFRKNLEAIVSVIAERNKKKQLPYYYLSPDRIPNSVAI
The assay is described as follows: 5-LOX inhibitory assay. Type of assay: biochemical. Conditions: for inhibition at 62.5 µg/mL: 62.5 μg/ml; for inhibition at 62.5 µg/mL / inhibition at 125 µg/mL / inhibition at 250 µg/mL / inhibition at 500 µg/mL / inhibition at 1000 µg/mL: mean ± SEM, n = 3, read-out: 5-LOX percent inhibition; for inhibition at 125 µg/mL: 125 μg/ml; for inhibition at 250 µg/mL: 250 μg/ml; for inhibition at 500 µg/mL: 500 μg/ml; for inhibition at 1000 µg/mL: 1000 μg/ml. The method, then: The synthesized Isoxazole derivatives will be investigated for 5-LOX Inhibition studies as per established protocols of Wisastra and his co researchers. In this experiment, residual enzyme potential will be utilized to measure the degree of enzyme inhibition after 10 to 15 minutes of inhibitor’s incubation at 25°C. The reaction involving the conversion of linoleic acid, a substrate of lipoxygenase, into hydroperoxy-octadecadienoate (HPOD) will be employed as a means of quantifying the said reaction. The variation in the rate of absorption will be determined by employing a UV-visible spectrophotometer set at a wavelength of 234 nm. A 50 mM Tris buffer containing 2 mM EDTA and 2 mM CaCl2 was used as the assay buffer in this experiment. The buffer has a pH of 7.5. Following this, a buffer solution was employed to dilute the 5-lipoxygenase (5-LOX) enzyme at a concentration of 20,000 units per millilitre (U/mL) at a ratio of 1:4000. The 100 mM inhibitor was diluted using the test buffer following the administration of dimethyl sulfoxide (DMSO) for its dissolution. The content of linoleic acid was reduced to 20 mg/ml through dilution using ethyl alcohol. To accomplish this, 1 mL of the enzyme solution (1: 4000) will be combined with 100 μL of 2 mM adenosine triphosphate (ATP), 100 μL of the inhibitor (1 mM), and […] of Tris buffer while incubated for 10 min. Following approximately 10 seconds of the substrate and the enzyme mixing together, 10 μL of a 20 mM substrate solution will be added to the mixture. At that point, the changing rate of the substrate will be determined. The response rate will be utilized as a positive control without blockers. In this experiment, montelukast will be utilized as the reference medicine.

Molecules are shown by their SMILES.

As a reminder, the IC50 is the concentration that gives 50% inhibition. `O=C1O[C@H]([C@@H](O)CO)C(O)=C1O` [Ascorbic acid, reference compound] returned an IC50 in assay [1] of 17.9 µM. Also, the DPPH percent inhibition in assay [1] (62.5 μg/mL) was 77.72±0.59%; in assay [1] (125 μg/mL) it was 79.37±0.71%; in assay [1] (250 μg/mL), 82.25±0.72%; in assay [1] (500 μg/mL), 87.65±0.42%; in assay [1] (1000 μg/mL), 92.51±0.69%.

Regarding `CCO/C(C)=N/c1onc(C)c1C(=O)NCc1ccc(OC)cc1OC` [Compound 64], in assay [2], the “inhibition of paw edema” value was “strongly inhibited”.

`COc1cc(-c2cc(-c3sccc3C)no2)cc(OC)c1OC` [Compound 65]: the “activity of 5-LOX” value in assay [3] is “considerably reduce”. The “activity of COX” value in assay [4] is given as “considerably reduce”. For the same molecule, in assay [5], the “inhibition on tumor growth” value is “excellent inhibition”.

Broadly, the inhibition is the percentage by which the read-out fell short of the control. For `COc1ccc(C2NC(=O)NC(C(F)(F)F)=C2c2cc(-c3ccco3)on2)cc1` (stereo not shown) [Compound C6], in assay [6], the IC50 came out at 3.67 µM, the inhibition at 62.5 µg/mL came to 81.9 ± 0.96%, the inhibition at 125 µg/mL turned out to be 85.08 ± 0.47% and the inhibition at 250 µg/mL was 88.8 ± 1.26%. Also, in assay [6], the inhibition at 500 µg/mL was found to be 91.4 ± 0.2% and the inhibition at 1000 µg/mL turned out to be 94.6 ± 1.12%. In addition, the midpoint of inhibition in assay [1], the IC50, lay at 18.9 µM. In assay [1] (62.5 μg/mL), this molecule gave a DPPH percent inhibition of 73.72±0.64%. In assay [1] (125 μg/mL), this molecule yielded a DPPH percent inhibition of 78.42±0.66%. In addition, the DPPH percent inhibition in assay [1] (250 μg/mL) turned out to be 83.53±0.45%. In addition, in assay [1] (500 μg/mL), the DPPH percent inhibition was determined as 88.45±0.49%. For the same molecule, the DPPH percent inhibition in assay [1] (1000 μg/mL) amounted to 91.63±0.55%.

Regarding `CC(C)(O)c1ccccc1CC[C@@H](SCC1(CC(=O)O)CC1)c1cccc(/C=C/c2ccc3ccc(Cl)cc3n2)c1` [Montelukast, reference compound], in assay [6], the IC50 amounted to 21.8 µM, the inhibition at 62.5 µg/mL came to 71.8 ± 0.9%, the inhibition at 125 µg/mL is 76.4 ± 1.2% and the inhibition at 250 µg/mL came to 81.6 ± 1.63%. In addition, in assay [6], the inhibition at 500 µg/mL came out at 87.5 ± 0.9% and the inhibition at 1000 µg/mL worked out at 94.1 ± 1.04%.
